The results in this text go back to publication PMC2593051, “Biochemical and Genetic Characterization of PspE and GlpE, Two Single-domain Sulfurtransferases of Escherichia coli” (The Open Microbiology Journal, 2008).

Data set [1] has as its target T1, PspE (fraction PspE2) (Escherichia coli, UniProt P23857).
T1 construct: 85 residues, 9428 Da; untagged; overexpressed from pHC4.1 (pT7-7) in E. coli BL21(DE3), freeze-thaw extract, SP cation exchange; partly persulfide/sulfonate modified at single cysteine
T1 sequence (P23857 20-104): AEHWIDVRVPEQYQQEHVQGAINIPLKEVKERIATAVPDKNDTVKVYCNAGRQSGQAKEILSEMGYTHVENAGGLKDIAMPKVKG
The data set can be described thus: rhodanese assay. The note with it: Tris-acetate pH 8.6; for % inhibition at 0.25 M: 250000 µM, anion inhibition. It is filed as biochemical.

Data set [2] has as its target T1, PspE (fraction PspE2). Description: chemical inactivation by cysteine reagent. It is filed as biochemical. The note with it: covalent; active-site cysteine; fraction PspE1 more tolerant than PspE2; data not shown.
Substrate in data set [3]: O=S(O)(O)=S
The data set can be described thus: purified protein. Format: biochemical, Escherichia coli. The note with it: pH 8.6; 25.0 °C.

Substrate in data set [4]: OC(CS)C(O)CS
Description: purified protein. It is filed as biochemical, Escherichia coli. The following applies: sulfur acceptor, 4 mM or 10 mM thiosulfate, Tris-acetate pH 8.6, PspE fraction not stated.

Structures can show the parent of a compound that is named as a salt. A value given as a limit tells only on which side of the number the result lay.

One may read the % inhibition as how much of the control response was suppressed. Read a low % inhibition as little suppression. A word on the Km: it is the concentration of substrate that gives half-maximal velocity. What is called kcat is the maximal rate divided by the concentration of active sites.

In the case of `O=P(O)(O)O` [sodium phosphate], the “% inhibition at 0.25 M” value on PspE (fraction PspE2) [1] is reported as ~ 65%. On to `O=S(O)O` [sodium sulfite], for which the “% inhibition at 1 mM” value at PspE (fraction PspE2) [1] (rhodanese product as inhibitor, data not shown) is given as > 50%. For `O=S(=O)(O)O` [sodium sulfate], on PspE (fraction PspE2) [1], the “% inhibition at 0.25 M” value is ~ 50%. Regarding `O=C(O)c1cc(SSc2ccc([N+](=O)[O-])c(C(=O)O)c2)ccc1[N+](=O)[O-]` [5,5’-dithio-bis(2-nitrobenzoic acid)], the “chemical inactivation by cysteine reagent” value at PspE (fraction PspE2) [2] is “PspE1 was much more tolerant to chemical inactivation by the cysteine-modifying reagent”.

B1: PspE (fraction PspE2) (Escherichia coli K-12) (protein)
chain: AEHWIDVRVPEQYQQEHVQGAINIPLKEVKERIATAVPDKNDTVKVYCNAGRQSGQAKEILSEMGYTHVENAGGLKDIAMPKVKG
notes: 85 residues, 9428 Da; untagged; overexpressed from pHC4.1 (pT7-7) in E. coli BL21(DE3), freeze-thaw extract, SP cation exchange; partly persulfide/sulfonate modified at single cysteine
Turning to B1, in “purified protein [3]”, the Km was found to be 2.7 mM and the catalytic constant (kcat) worked out at 64 s⁻¹. The Km in the data set “purified protein [4]” came out at 10 mM.
